Measurements taken from publication PMC8525843 (Investigative Ophthalmology & Visual Science, 2021).

Key:
rabbit eyes = conditions: after administration; cited from earlier work
patients = conditions: clinical data; cited from earlier work
[1] = test system: hypertonic saline-induced ocular hypertensive NZW rabbits; assay: IOP-lowering effect in hypertonic saline-induced ocular hypertensive NZW rabbits; type: in vivo, rabbit; conditions: 0.02%; at 1.5 hours; vs saline

Compound: O=S(=O)(c1cccc2c(Cl)cccc12)N1CCCNCC1 [ML-9]
- IOP of rabbit eyes (rabbit eyes): decreased in a dose-dependent manner

Compound: C[C@H]1CNCCCN1S(=O)(=O)c1cccc2cncc(F)c12 [ripasudil, Ripasudil]
- time for conjunctival hyperemia to resolve spontaneously (patients): ≤ 4 h

Compound: Cc1ccc(C(=O)OCc2ccc([C@@H](CN)C(=O)Nc3ccc4cnccc4c3)cc2)c(C)c1 [AR-13324, netarsudil]
- Emax of IOP reduction [1]: 12.1 ± 0.9 mm Hg
